These results are taken from publication PMC4772543, “Immune responses to Mycobacterial heat shock protein 70 accompany self-reactivity to human BiP in rheumatoid arthritis” (Scientific Reports, 2016).

For assay [1], the system named is HLA-DR4-positive HD PBMCs. Description: Proliferation of healthy donor PBMCs in response to peptide (3H-thymidine uptake). Conditions: HLA-DR4-positive healthy donors (SE +/− n = 10), peptide 10 μg/mL. It is filed as cell-based, human. Here is the method:
Figure 3 MycHSP70_287–306 was a HLA-DR4-restricted epitope in RA. (A) The proliferation of PBMCs in RA patients (Shared epitope (SE) +/+ n = 12, SE +/− n = 22, SE−/− n = 9) and HDs (SE +/− n = 10) in response to MycHSP70_287–306. Proliferation was determined by the incorporation of [3]-H thymidine. The stimulation index (SI) was calculated using the following equation: (median thymidine uptake to an antigen)/(median thymidine uptake in the absence of an antigen). Horizontal line: the median. (B) Amino acid sequences of MycHSP70 (lower lines) and human BiP (upper lines) near the epitopes. Epitope sequences are indicated in bold letters. […]
PBMCs (1 × 10^6/mL) isolated with Ficoll-Paque (GE Healthcare) were cultured in the presence or absence of each peptide (10 μg/mL) with RPMI 1640 medium supplemented with 10% human serum, 2 mM L-glutamine, 100 U/ml penicillin, and 100 μg/ml streptomycin in a humidified incubator at 37 °C, 5% CO2, for 96 hours. […] Counts per minute were measured with a scintillation counter. In some experiments, the culture supernatants were collected after a 72-hour incubation and cytokine concentrations were measured in the culture supernatants by a human IFN-γ high sensitivity ELISA kit and human IL-17 high sensitivity ELISA kit (eBioscience). […]

Assay [2] deals with splenic CD4+ T cells from CIA-induced DBA/1 J mice. Description: Splenic CD4+ T cell recall culture from CIA mice after oral peptide (proliferation, cytokine ELISA). It is filed as cell-based, mouse. Here is the method: (A,B) The MycHSP70_287–306 peptide or control (PBS alone) was orally administered to bovine type II collagen-immunized DBA/1 J mice after the occurrence of CIA for 5 continuous days (n = 12). Mice were sacrificed on day 35. Arthritis scores were measured by finger and paw swelling, and histological scores were measured by cell infiltration (C), pannus formation (P), and bone destruction (B). (C) Splenic CD4^+ T cell proliferation from CIA-induced DBA/1 J mice in response to a recall antigen (Ag) stimulation (MycHSP70_287–306 and BiP336–355 epitopes, and heat-denatured bovine type II collagen (BC II)). Proliferation was determined by[3]-H thymidine incorporation. (D) Serum anti-BiP and anti-BC II antibody titers were measured by ELISA. (E,F) Mouse IL-10 and TGF-beta1 concentrations in the splenic CD4^+ T cell culture were measured by ELISA.
HLA-DR4 transgenic mice were obtained from Taconic, immunized twice (day 0, 14) with 100 μg of MycHSP70 with the same volume of complete Freund’s adjuvant subcutaneously into the tails, and sacrificed on day 21. MACS-purified CD4^+ T cells (1 × 10^5/mL) were cultured with irradiated splenocytes (1 × 10^6/mL) and an antigen (10 μg/mL) in RPMI 1640 medium supplemented with 5% FCS, 2 mM L-glutamine, 100 U/ml penicillin, 100 μg/ml streptomycin, and 5 × 10^−5 M 2-mercaptoethanol in a humidified incubator at 37 °C, 5% CO2, for 72 h. ^3H-thymidine was pulsed to each well, cells were harvested after an 18-hour incubation, and analyzed with a scintillation counter.
CIA in the background of DBA/1 J female mice (SLC Japan) was performed and arthritis scores were acquired as previously described. In the therapeutic experiments, mice were administered 200 μg of MycHSP287–306 peptides orally for 5 continuous days following the onset of arthritis. Mice were sacrificed on day 35, and the CD4^+ T cell culture was performed as described above. Mouse cytokine concentrations in the supernatants were measured using a mouse IL-10 ELISA kit and mouse/human TGF-beta 1 ELISA kit (eBioscience) according to the manufacturer’s protocol. Tissue samples were embedded in paraffin wax after 10% formaldehyde fixation and decalcification. Sections were stained with hematoxylin and eosin. Synovial tissues were graded by mononuclear cell infiltration, pannus formation, and cartilage erosion, as described previously. All animal experiments were conducted in accordance with Institutional and National Guidelines, and the protocols were approved by the Ethical Committee on Animal Experiments of the University of Tokyo. […]
The experimental protocol was the same as Figure 6.
(A)(B)Mouse IL-17 and IFN-gamma concentrations in the splenic CD4+ T cell
culture was measured by ELISA (Mouse cytokine ELISA ready-set-go,
eBioscience) according to the manufacture’s protocol. […]

[3] abbreviates: MycHSP70_287–306 and BiP336–355 recall stimulations, peptide-treated mice, ELISA.
Where [4] appears, read: mice given MycHSP70_287–306 orally vs PBS, 3H-thymidine.

Turning to DRTRKPFQSVIADTGISVSE [MycHSP70_287–306], in assay [1], the “peptide-induced proliferation of HD PBMCs” value is recorded as “not observed”. Further, in assay [2] (setting [3]), the “secretion of IL-10 from CD4+ T cells” value is listed as “induced” and the “secretion of TGF-β1 from CD4+ T cells” value was “induced”. In addition, in assay [2] (setting [4]), the “proliferation of CD4+ T cells in response to BiP336–355 recall” value is “reduced” and the “proliferation of CD4+ T cells in response to MycHSP70_287–306 recall” value was “reduced”. Also, the “bovine type II collagen-specific T cell proliferation” value in assay [2] (mice given MycHSP70_287–306 orally vs PBS, heat-denatured BC II recall) is on record as “suppressed”. Moreover, the “pro-inflammatory cytokine secretion from CD4+ T cells” value in assay [2] (mouse IL-17 and IFN-gamma by ELISA, mice given peptide orally vs PBS (Supplementary Figure S2)) is on record as “suppressed”.
